Results taken from patent US9072737B2, “tPA mutant in the treatment of acute brain injury and neurodegenerative disorders” (HADASIT MEDICAL RESEARCH SERVICES & DEVELOPMENT LTD., priority 2008, dated 2015).

Test system: Blood Brain Barrier (BBB)
Test: Blood brain barrier permeability, Evans blue uptake into brain
Type: in vivo, mice
Conditions: peptide 1 mg/kg i.p. together with tPA 1 mg/kg; FIG. 4A
Method: The uptake of Evans blue dye into a brain tissue served as a marker to for quantifying disruption of the blood-brain barrier and increase in permeability of the BBB. […] Data was expressed as absorbance at 620 nm per gram of tissue. The mean±SEM of data from 8-9 animals/group are shown.
FIG. 4A. Mice were injected i.p. with 25 μl of saline or saline containing either WT-tPA or mtPA (1 mg/kg each) alone or together with PAI-1 derived 18 amino acids (aa) (as denoted by SEQ ID NO. 8) or 6 aa (as denoted by SEQ ID NO. 3) peptides (1 mg/kg each). Ten minutes later, the mice were given an i.v. injection of 2% Evans blue (EB) in saline. One hour after injection of dye, organs were cleared of blood by transcardiac perfusion. […] Extruded dye was quantified by absorbance at 620 nm. The figure presents a histogram illustration of the absorbance of EB at […] per gram of tissue. […]
To determine the effect of injection of tPA-S^481A on BBB function, anesthetized mice were injected i.p. with 25 μl of saline or saline containing tPA or tPA mutant (tPA-Ser^481Ala) (1 mg/kg each), followed by the intravenous injection of 2% Evans blue in saline. Evans blue was quantified by absorbance at 620 nm.
Plasminogen activator inhibitor-1 (PAI-1) is recognized as the inhibitor of tPA. […] Extruded dye was quantified by absorbance at 620 nm. Data are expressed in FIG. 4A as absorbance per gram of tissue.

EEIIMD (listed as Homo sapiens) [reference compound]
inhibition of recombinant tPA-induced BBB permeability: failed to decrease
